Assay results reported in PMC4728068, “Mixture Effects of Estrogenic Pesticides at the Human Estrogen Receptor α and β” (PLoS ONE, 2016).
Converted amounts (≈) assume the structure as drawn.

Tests used:
[1] = biological target: T1, human estrogen receptor α (hERα) (Homo sapiens, UniProt P03372); assay: Yeast-based estrogen screen (YES) assay, β-galactosidase reporter gene; format: cell-based; conditions: for YES EC01 / YES EC10: single substances; for YES EC01: concentration needed to elicit a 1% effect of 1 nM E2; for YES EC10: concentration needed to elicit a 10% effect of 1 nM E2
T1 construct: expressed in transfected cells
T1 sequence (P03372 whole entry): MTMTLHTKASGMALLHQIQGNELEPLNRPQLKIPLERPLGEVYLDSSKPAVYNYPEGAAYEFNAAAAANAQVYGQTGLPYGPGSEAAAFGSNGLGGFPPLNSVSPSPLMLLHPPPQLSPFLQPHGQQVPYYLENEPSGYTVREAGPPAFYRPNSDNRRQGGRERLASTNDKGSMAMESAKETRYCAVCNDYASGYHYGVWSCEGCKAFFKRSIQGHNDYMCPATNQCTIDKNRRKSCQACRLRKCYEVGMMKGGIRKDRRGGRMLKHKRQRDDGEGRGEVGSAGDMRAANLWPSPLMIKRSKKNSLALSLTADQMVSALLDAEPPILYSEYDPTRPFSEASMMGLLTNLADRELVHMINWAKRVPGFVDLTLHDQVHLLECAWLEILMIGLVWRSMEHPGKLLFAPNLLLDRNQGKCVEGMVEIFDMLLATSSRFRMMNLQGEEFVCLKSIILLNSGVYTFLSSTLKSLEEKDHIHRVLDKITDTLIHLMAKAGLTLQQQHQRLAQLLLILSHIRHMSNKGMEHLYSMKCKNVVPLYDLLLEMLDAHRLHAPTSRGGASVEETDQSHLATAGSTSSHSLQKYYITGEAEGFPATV
Experimental: (§1) It should be taken into account that an increased turbidity could also mask cytotoxicity.
(§2) Normalized concentration-response data from the YES, ERα and ERβ CALUX assays were analyzed by nonlinear regression after the x-axis with the test substance concentrations was log-transformed. […] All mathematical/statistical analyses were performed using R version 3.1.2 (R Foundation for Statistical Computing, Vienna, Austria).

hERβ = biological target: T2, hERβ (Homo sapiens, UniProt Q92731); assay: ERβ CALUX assay (U2-OS cell-based luciferase reporter gene); conditions: for estrogenic activity at the hERβ in the ERβ CALUX assay (in words): applied alone; for ERβ CALUX EC01 / ERβ CALUX EC10: single substances; for ERβ CALUX EC01: 1% effect (of 1 nM E2); for ERβ CALUX EC10: 10% effect (of 1 nM E2)
T2 construct: expressed in transfected cells; host or cells: human U2-OS cells
T2 sequence (Q92731 whole entry): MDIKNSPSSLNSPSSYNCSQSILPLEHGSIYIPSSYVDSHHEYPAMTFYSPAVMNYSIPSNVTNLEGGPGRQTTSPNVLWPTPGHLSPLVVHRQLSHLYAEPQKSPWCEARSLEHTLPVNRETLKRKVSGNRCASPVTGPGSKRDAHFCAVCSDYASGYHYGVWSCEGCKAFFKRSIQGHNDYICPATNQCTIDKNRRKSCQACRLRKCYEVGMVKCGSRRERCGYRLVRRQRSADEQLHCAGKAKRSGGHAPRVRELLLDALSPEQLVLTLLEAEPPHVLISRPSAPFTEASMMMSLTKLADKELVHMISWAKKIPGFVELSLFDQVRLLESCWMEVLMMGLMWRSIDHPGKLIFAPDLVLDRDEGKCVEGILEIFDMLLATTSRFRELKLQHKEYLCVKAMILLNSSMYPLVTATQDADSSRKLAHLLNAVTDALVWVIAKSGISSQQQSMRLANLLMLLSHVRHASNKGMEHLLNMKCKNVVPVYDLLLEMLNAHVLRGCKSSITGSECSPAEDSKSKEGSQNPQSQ
Experimental: (§3) The ERα and ERβ CALUX assay were performed to evaluate the effect of the test substances on the hERα and hERβ as described by van der Burg et al. [21] with slight modifications. The pesticides were tested in three independent experiments, individually and as mixtures, in triplicates in 96-well plates. DMSO was used as solvent and was present in the test medium at a maximal concentration of 0.2% v/v. Solvent controls were included in each plate. […] The same plate also contained 3 μM 17α-methyltestosterone as additional estrogenic control as well as 10 nM corticosterone as negative control. […] A prescreen, in which all test substances were tested for estrogenicity between 0.01 μM and 60 μM, was performed. The three highest test substance concentrations and controls were checked for their ability to affect cell membrane integrity by quantification of the lactate dehydrogenase leakage (LDH) with the CytoTox-ONE™ Homogeneous Membrane Integrity Assay (Promega, Madison, WI, USA), which was performed as recommended by the manufacturer. Those test substance concentrations leading to a decline of the effect after a maximum was reached as well as those leading to insolubility were excluded from further experiments.
as §2

hERα [2] = biological target: T3, hERα (Homo sapiens, UniProt P03372); assay: YES assay in combination with a saturating concentration of E2 (1 nM): anti-estrogenic or potentiating effects; format: cell-based, yeast; conditions: for maximum to which the effect of 1 nM E2 was enhanced: YES assay, combined with 1 nM E2, normalized to 1 nM E2; for effect when combined with 1 nM E2 in the YES assay (in words): saturating 1 nM E2
T3 sequence (P03372 whole entry): as the sequence (P03372 whole entry) above
Experimental: Each pesticide and pesticide mixture was tested in quadruplicate in at least five experiments.

MCF-7 cells [3] = test system: MCF-7 cells; parameters: method as in PMID 10789375; conditions: cited from earlier work
hERα [4] = biological target: T3, hERα; assay: ERα CALUX assay (U2-OS cell-based luciferase reporter gene); parameters: expressed in transfected cells; host or cells: human U2-OS cells; conditions: for ERα CALUX EC01: 1% effect (of 1 nM E2); for ERα CALUX EC10: 10% effect (of 1 nM E2)
Experimental: as §3, §2

hERα [5] = biological target: T3, hERα; conditions: in combination with 3 pM E2
miR-21 = conditions: cited from earlier work
MCF-7 cells [6] = conditions: cited from earlier work
[7] = Insolubility in the YES assay medium (turbidity at 690 nm, cell-free control plate); conditions: for solubility: kinetic from dmso stock
Text: as §1
The concentrations of the test substances to be tested were limited depending on their solubility. […] A decrease of turbidity in the YES assay was assumed to be equivalent to an inhibition of yeast cell growth.

MCF-7 cells [8] = conditions: with or without E2; 27 (pirimicarb), ref 11 (propamocarb); cited from earlier work
yeast cells = assay: Cytotoxicity in the YES assay (decrease in optical density/turbidity at 690 nm); format: cell-based; conditions: assumed equivalent to inhibition of yeast cell growth, data not shown
estrogen receptor = test system: estrogen receptor; parameters: method as in PMID 11884232; conditions: in combination with a saturating concentration of E2; cited from earlier work

| SMILES | YES EC01 [1] | estrogenic activity at the hERβ in the ERβ CALUX assay (in words) (hERβ) | ERβ CALUX EC01 (hERβ) | ERβ CALUX EC10 (hERβ) | ERα CALUX EC01 (hERα [4]; single substances) | ERα CALUX EC10 (hERα [4]; single substances) | solubility [7] | also measured |
| --- | --- | --- | --- | --- | --- | --- | --- | --- |
| OC(c1ccc(Cl)cc1)(c1cncnc1)c1ccccc1Cl (stereo not shown) [fenarimol] | 11700 nM | dose-dependent estrogenic activity | 3.63 µM | 13.5 µM | 794 nM | 2.82 µM | – | maximum effect normalized to the effect of 1 nM E2 ([1]; single substance, YES assay): 2.69; YES EC10 [1]: 21.9 µM; maximum to which the effect of 1 nM E2 was enhanced (hERα [2]): 4.36; effect in MCF-7 proliferation assay compared with E2 (MCF-7 cells [3]): without exceeding the effect of E2; maximum effect relative to the effect of 0.1 nM E2 (hERα [4]; single substances, ERα CALUX assay): 1.17 |
| N#Cc1c[nH]cc1-c1cccc2c1OC(F)(F)O2 [fludioxonil] | 832 nM | – | – | – | 363 nM | 1.26 µM | 100 to 500 µM (≈ 24.8 to 124 µg/mL) | YES EC10 [1]: 26.3 µM; inhibition of the E2 effect in the YES assay (hERα [2]; in combination with 1 nM E2): 44%; effect when combined with 1 nM E2 in the YES assay (in words) (hERα [2]): concentration-dependent anti-estrogenic effects; anti-estrogenic effect in the ERα CALUX assay (in words) (hERα [5]): an anti-estrogenic effect was not observed; miR-21 expression in breast cancer cells (miR-21): increase of miR-21 expression; E2-induced cell proliferation in MCF-7 cells (MCF-7 cells [6]): inhibition of E2-induced cell proliferation |
| CCCOC(=O)NCCCN(C)C [propamocarb] | – | – | – | – | – | – | – | proliferation of MCF-7 cells in the E-Screen (MCF-7 cells [8]): did not stimulate the proliferation of MCF-7 cells |
| CCOP(=S)(OCC)Oc1nc(Cl)c(Cl)cc1Cl [chlorpyrifos] | 79.4 nM | – | – | – | 617 nM | 3.47 µM | 100 to 1000 µM (≈ 35.1 to 351 µg/mL) | maximum to which the effect of 1 nM E2 was enhanced (hERα [2]): 1.84; effect in MCF-7 proliferation assay compared with E2 (MCF-7 cells [3]): without exceeding the effect of E2 |
| Clc1ccc(C(c2ccc(Cl)cc2)C(Cl)(Cl)Cl)cc1 [4,4’-DDT, 4,4’- dichlorodiphenyltrichloroethane] | – | dose-dependent estrogenic activity | 1.02 µM | – | – | – | – | concentrations leading to insolubility (tested in the YES assay) ([7]; YES assay medium): 50 to 500 µM |
| CC1(C(=O)Nc2ccc(O)c(Cl)c2Cl)CCCCC1 [fenhexamid] | – | dose-dependent estrogenic activity | 1.17 µM | 5.01 µM | – | – | 100 µM (≈ 30.2 µg/mL) | concentrations decreasing turbidity by more than 30% in comparison to the solvent control (yeast cells): ≥ 500 µM; miR-21 expression in breast cancer cells (miR-21): increase of miR-21 expression; E2-induced cell proliferation in MCF-7 cells (MCF-7 cells [6]): inhibition of E2-induced cell proliferation |
| Clc1ccc(C(c2ccccc2Cl)C(Cl)(Cl)Cl)cc1 (stereo not shown) [2,4’-DDT, 2,4’-dichlorodiphenyltrichloroethane] | – | dose-dependent estrogenic activity | 0.055 µM | 0.603 µM | – | – | – | – |
| Cc1nc(N(C)C)nc(OC(=O)N(C)C)c1C [pirimicarb] | – | – | – | – | – | – | – | estrogenic activity in the YES assay (in words) ([1]; applied alone): negative; effect when combined with 1 nM E2 in the YES assay (in words) (hERα [2]): negative; proliferation of MCF-7 cells in the E-Screen (MCF-7 cells [8]): did not stimulate the proliferation of MCF-7 cells; effect in transactivation assay with MCF-7 BOS cells (estrogen receptor): induced a stronger effect; estrogenic activity in the ERα CALUX assay (in words) (hERα [4]; applied alone): negative |
